target: BTK enzyme (recombinant full-length BTK, hBTK) (Homo sapiens (Human), UniProt Q06187); assay: Btk enzyme activity assay, LANCE TR-FRET; conditions: read-out: BTK binding IC50; 50 pM hBTK, 2 μM biotin-A5-peptide, 25 μM ATP; 60 minute compound & enzyme incubation
Sequence (Q06187 whole entry): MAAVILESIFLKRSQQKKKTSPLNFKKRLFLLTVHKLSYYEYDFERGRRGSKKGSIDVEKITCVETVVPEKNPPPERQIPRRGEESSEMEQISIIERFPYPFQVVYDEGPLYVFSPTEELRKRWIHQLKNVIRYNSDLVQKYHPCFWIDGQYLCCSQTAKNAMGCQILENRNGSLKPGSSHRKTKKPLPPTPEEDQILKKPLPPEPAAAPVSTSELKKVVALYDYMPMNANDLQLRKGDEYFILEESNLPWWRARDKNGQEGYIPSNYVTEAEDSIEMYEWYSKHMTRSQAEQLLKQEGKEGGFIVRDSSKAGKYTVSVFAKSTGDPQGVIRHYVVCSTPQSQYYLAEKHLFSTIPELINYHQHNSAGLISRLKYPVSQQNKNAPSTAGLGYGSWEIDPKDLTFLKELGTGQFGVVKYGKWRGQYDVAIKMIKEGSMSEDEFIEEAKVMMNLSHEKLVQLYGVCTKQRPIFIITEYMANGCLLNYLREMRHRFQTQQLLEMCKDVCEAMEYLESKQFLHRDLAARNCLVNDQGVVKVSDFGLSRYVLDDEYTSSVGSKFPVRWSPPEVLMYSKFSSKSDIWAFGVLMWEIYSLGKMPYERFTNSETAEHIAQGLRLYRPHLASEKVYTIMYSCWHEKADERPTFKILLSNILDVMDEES
Protocol: Also BTK enzymatic activity was determined with the LANCE (Lanthanide Chelate Excite) TR-FRET (Time-resolved fluorescence resonance energy transfer) assay. […] Phosphorylation reactions were allowed to proceed for 120 minutes. […] After 60 minutes incubation with detection reagents, reaction plates were read on a PerkinElmer EnVision plate reader using standard TR-FRET protocol. Briefly, excitation of donor molecules (Eu-chelate:anti-phospho-antibody) with a laser light source at 337 nm produces energy that can be transferred to Dylight-650 acceptor molecules if this donor:acceptor pair is within close proximity. Fluorescence intensity at both 665 nm (acceptor) and 615 nm (donor) are measured and a TR-FRET ratio calculated for each well (acceptor intensity/donor intensity).
Btk Enzyme Activity Assay Method
BTK enzymatic activity was determined with the LANCE (Lanthanide Chelate Excite) TR-FRET (Time-resolved fluorescence resonance energy transfer) assay. […] Phosphorylation reactions were allowed to proceed for 120 minutes. […] After 60 minutes incubation with detection reagents, reaction plates were read on a PerkinElmer EnVision plate reader using standard TR-FRET protocol. Briefly, excitation of donor molecules (Eu-chelate:anti-phospho-antibody) with a laser light source at 337 nm produces energy that can be transferred to Dylight-650 acceptor molecules if this donor:acceptor pair is within close proximity. Fluorescence intensity at both 665 nm (acceptor) and 615 nm (donor) are measured and a TR-FRET ratio calculated for each well (acceptor intensity/donor intensity).

| Compound | IC50 |
| --- | --- |
| C[C@H]1CC[C@@H](c2nn(-c3ccc(C(=O)Nc4cc(C5CC5)ccn4)cc3)c3c(N)nccc23)CN1C(=O)C1CC1 [Example 31, 4-{7-amino-3-[(3R,6S)-1-(cyclopropylcarbonyl)-6-methylpiperidin-3-yl]-1H-pyrazolo[3,4-c]pyridin-1-yl}-N-(4-cyclopropylpyridin-2-yl)benzamide] | 1.3 nM |
| CC1(C(=O)N2CCC[C@@H](c3nn(-c4ccc(C(=O)Nc5cc(C(F)(F)F)ccn5)cc4)c4c(N)nccc34)C2)COC1 [Example 9, (R)-4-(7-amino-3-(1-(3-methyloxetane-3-carbonyl)piperidin-3-yl)-1H-pyrazolo[3,4-c]pyridin-1-yl)-N-(4-(trifluoromethyl)pyridin-2-yl)benzamide] | 0.47 nM |
| Nc1nccc2c([C@@H]3CCCN(C(=O)C4CC(F)(F)C4)C3)nn(-c3ccc(C(=O)Nc4cc(C(F)(F)F)ccn4)cc3)c12 [Example 17, 4-(7-amino-3-{(3R)-1-[(3,3-difluorocyclobutyl)carbonyl]piperidin-3-yl}-1H-pyrazolo[3,4-c]pyridin-1-yl)-N-[4-(trifluoromethyl)pyridin-2-yl]benzamide] | 2.5 nM |
| C[C@@H](O)C(=O)N1C[C@H](c2nn(-c3ccc(C(=O)Nc4cccc(OC5CC5)c4)cc3)c3c(N)nccc23)CC[C@@H]1C [Example 36, 4-(7-amino-3-((3R,6S)-1-((R)-2-hydroxypropanoyl)-6-methylpiperidin-3-yl)-1H-pyrazolo[3,4-c]pyridin-1-yl)-N-(3-cyclopropoxyphenyl)benzamide] | 30.4 nM |
| CCOCC(=O)N1CCC[C@@H](c2nn(-c3ccc(C(=O)Nc4cc(C(F)(F)F)ccn4)cc3)c3c(N)nccc23)C1 [Example 22, 4-{7-amino-3-[(3R)-1-(ethoxyacetyl)piperidin-3-yl]-1H-pyrazolo[3,4-c]pyridin-1-yl}-N-[4-(trifluoromethyl)pyridin-2-yl]benzamide] | 1.2 nM |
| COCC(=O)N1CCO[C@@H](c2nn(-c3ccc(C(=O)Nc4cc(C(F)(F)F)ccn4)cc3)c3c(N)nccc23)C1 [Example 5, 4-{7-amino-3-[(2R)-4-(methoxyacetyl)morpholin-2-yl]-1H-pyrazolo[3,4-c]pyridin-1-yl}-N-[4-(trifluoromethyl)pyridin-2-yl]benzamide] | 3.7 nM |
| COc1ccnc(NC(=O)c2ccc(-n3nc([C@H]4CN(C(=O)C5(C)COC5)CCO4)c4ccnc(N)c43)cc2)c1 [Example 8, 4-(7-amino-3-{(2R)-4-[(3-methyloxetan-3-yl)carbonyl]morpholin-2-yl}-1H-pyrazolo[3,4-c]pyridin-1-yl)-N-(4-methoxypyridin-2-yl)benzamide] | 42.1 nM |
| C[C@H]1CC[C@@H](c2nn(-c3ccc(C(=O)Nc4cccc(OC5CC5)c4)cc3)c3c(N)nccc23)CN1C(=O)C1(C)COC1 [Example 35, 4-(7-amino-3-((3R,6S)-6-methyl-1-(3-methyloxetane-3-carbonyl)piperidin-3-yl)-1H-pyrazolo[3,4-c]pyridin-1-yl)-N-(3-cyclopropoxyphenyl)benzamide] | 0.96 nM |
| COc1cc(C(=O)Nc2cc(C(F)(F)F)ccn2)ccc1-n1nc([C@@H]2CC[C@H]3CCC(=O)N3C2)c2ccnc(N)c21 [Example 40, 4-{7-amino-3-[(6R,8aS)-3-oxooctahydroindolizin-6-yl]-1H-pyrazolo[3,4-c]pyridin-1-yl}-3-methoxy-N-[4-(trifluoromethyl)pyridin-2-yl] benzamide] | 1.1 nM |
| COCC(=O)Nc1nccc2c([C@H]3CN(C(=O)COC)CCO3)nn(-c3ccc(C(=O)Nc4cc(C(F)(F)F)ccn4)cc3)c12 [Example 4, 4-{7-[(methoxyacetyl)amino]-3-[(2R)-4-(methoxyacetyl)morpholin-2-yl]-1H-pyrazolo[3,4-c]pyridin-1-yl}-N-[4-(trifluoromethyl)pyridin-2-yl]benzamide] | 46.5 nM |
| Nc1nccc2c([C@@H]3CCCN(C(=O)CC4CCC4)C3)nn(-c3ccc(C(=O)Nc4cc(C(F)(F)F)ccn4)cc3)c12 [Example 14, 4-{7-amino-3-[(3R)-1-(cyclobutylacetyl)piperidin-3-yl]-1H-pyrazolo[3,4-c]pyridin-1-yl}-N-[4-(trifluoromethyl)pyridin-2-yl]benzamide] | 3.5 nM |
| Nc1nccc2c([C@@H]3CCCN(C(=O)C4CCC4)C3)nn(-c3ccc(C(=O)Nc4cc(C(F)(F)F)ccn4)cc3)c12 [Example 20, 4-{7-amino-3-[(3R)-1-(cyclobutylcarbonyl)piperidin-3-yl]-1H-pyrazolo[3,4-c]pyridin-1-yl}-N-[4-(trifluoromethyl)pyridin-2-yl]benzamide] | 1.6 nM |
| C[C@H](O)C(=O)N1C[C@H](c2nn(-c3ccc(C(=O)Nc4cc(C5CC5)ccn4)cc3)c3c(N)nccc23)CC[C@@H]1C [Example 32, 4-(7-amino-3-{(3R,6S)-1-[(2S)-2-hydroxypropanoyl]-6-methylpiperidin-3-yl}-1H-pyrazolo[3,4-c]pyridin-1-yl)-N-(4-cyclopropylpyridin-2-yl)benzamide] | 1.6 nM |
| CCC(=O)N1CCO[C@@H](c2nn(-c3ccc(C(=O)Nc4cc(C(F)(F)F)ccn4)cc3)c3c(N)nccc23)C1 [Example 3, 4-{7-amino-3-[(2R)-4-propanoylmorpholin-2-yl]-1H-pyrazolo[3,4-c]pyridin-1-yl}-N-[4-(trifluoromethyl)pyridin-2-yl] benzamide] | 1.8 nM |

— patent publication US9834554B2, “BTK inhibitors” (MERCK SHARP & DOHME CORP., priority 2013, dated 2017)
